Inhibition data for one compound are collected here from publication PMC6934184, “Selective DNA-PKcs inhibition extends the therapeutic index of localized radiotherapy and chemotherapy” (The Journal of Clinical Investigation, 2019).

The test has as its target T1, PIM1 (Homo sapiens, UniProt P11309).
T1 construct: purchased Thermo Fisher Scientific (Life Technologies) SelectScreen
As to the kind of experiment: SelectScreen Z'LYTE. It counts as biochemical. The method in brief:
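Percent values come from Thermo SelectScreen profiling of NU5455, combining activity and binding assays. CSF1R was run in Z'LYTE format at Km app ATP, and CAMK1 in Adapta format with ATP listed at 10.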

T1 sequence (P11309 whole entry): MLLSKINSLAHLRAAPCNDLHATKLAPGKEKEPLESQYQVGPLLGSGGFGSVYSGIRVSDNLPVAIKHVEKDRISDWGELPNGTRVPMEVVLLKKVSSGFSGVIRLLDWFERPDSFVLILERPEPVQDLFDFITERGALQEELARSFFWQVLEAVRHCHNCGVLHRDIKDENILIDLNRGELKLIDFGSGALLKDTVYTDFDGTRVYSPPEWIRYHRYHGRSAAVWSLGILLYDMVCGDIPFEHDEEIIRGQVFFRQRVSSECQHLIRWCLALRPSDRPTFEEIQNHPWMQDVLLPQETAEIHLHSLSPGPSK

With `CN(C(=O)CN1CCOCC1)c1ccc2sc3c(-c4cccc5c(=O)cc(N6CC7CCC(C6)O7)oc45)cccc3c2c1` [NU5455], the inhibition at 1 µM is -1%.
